In patent publication US11083197B2, “Herbicidal composition comprising chromone derivatives and a method for weed control” (INVESTIGACIONES BIOLÓGICAS EN AGROQUÍMICOS ROSARIO S.A., priority 2015, dated 2021):
Read-outs that look alike come from different tables or passages of the source.

Key:
cucumber cotyledon disks = assay: Photosynthetic efficiency (chlorophyll fluorescence, ETR); assay type: cell-based; settings: after 24 h of incubation in the light (42 h total)
Procedure: The effects of pure compounds of formulas III and IV were evaluated by chlorophyll fluorescence measurements according to Dayan and Zaccaro.^24 Cucumber cotyledon disks were exposed to different dilutions of each furanochromone (10, 30, 100 and 300 μM). Control tissues were exposed to the same solvent as treated tissues but without the test compounds. The cotyledon disks were incubated in darkness for 18 h before exposure to light for 24 h. Photosynthetic quantum yield and electron transport rate (ETR) were measured. ETR values were expressed as percent of the ETR average values observed in control treatments. A time-course experiment was performed by measuring induced fluorescence of cotyledon disks after treatment at 3 h in darkness (start), after 18 h in darkness, after which the samples were placed in the light, and further measurements were made after 6 and 24 h of light exposure. The results of this experiment are shown in FIG. 16 (A: khellin [compound of formula III] and B: visnagin [compound of formula IV]). Three replicates were performed for each experiment. Bars represent, from left to right in each grouping, start, 18 h dark, 6 h light, and 24 h light.

cucumber leaf disks = assay: Cell death determination by Evans blue staining, leaf disks; assay type: cell-based; settings: 7 days; for increase in relative cell death with respect to the control: 100 μM; for increase in relative cell death: 300 μM
Procedure: To evaluate cell death in roots, onion seeds were germinated and treated as described in postemergence assay with weed species. Onion seedlings were exposed to different doses of compounds of formulas III and IV (0, 100 and 300 μM) during 4 days. For the experiment with leaf disks 3-weeks-cucumber plants were used. One disk (1 cm) was placed in each well of a 12-well plate together with 1 mL of a 2% w/v sucrose/1 mM MES, pH 6.5 solution containing each of the compounds tested at the appropriate concentration (0, 100 or 300 μM) and acetone (1% v/v). Each assay was performed with leaf disks from different plants. Plates were sealed with Parafilm and incubated in a growth chamber at 21-27° C. with a 16/8 h light/dark cycle for 7 days.
Cell death was determined by Evans blue staining.^26 Root tips (5-mm sections) and leaf disks were incubated for 30 min in 0.25% w/v Evans blue aqueous solution at 25° C. on a rotary shaker. After staining, unbound dye was removed by extensive washing with deionized water. Three root tips (3 replicates) or one leaf disk (4 replicates) were ground in a tissue grind tube with 500 μL 1% w/v sodium dodecyl sulfate (SDS). The resulting suspension was centrifuged for 20 min at 20,000 g and the supernatant was used for dye quantification by monitoring the absorbance at 600 and 680 nm. Relative cell death was expressed as A600 for root tips and A600/A680 ratios for leaf disks.

lettuce = assay: Postemergence bioassay with lettuce in Petri dishes; assay type: in vivo; settings: Lactuca sativa, post-emergence, day 6 (4 days after postemergence application), read-out: Average growth inhibition (%) as percentage of control; for inhibition at 500 µM: 0.50 mM; for inhibition at 1000 µM: 1.00 mM; for inhibition at 1500 µM: 1.50 mM
Procedure: Compounds of formula III and IV above were tested at different concentrations in a postemergence bioassay (in Petri dishes) against lettuce. Lettuce seeds were pre-incubated in Petri dishes with a filter paper and water for 2 days. After that, seedlings (15 mm approx.) were moved to a new Petri dish containing 4 mL of an aqueous solution of each compound or commercial herbicide. Plants length was measured at day 6 (4 days after postemergence application of the compounds). The results were compared to those obtained with acetochlor and glyphosate.
Plant length's axis starts in 15 mm because seeds were pre-incubated in water, so all seedlings were around 15 mm long at the beginning of the treatment.

lettuce (Lactuca sativa) = assay: Germination / dose-response bioassay with lettuce; assay type: in vivo; settings: for Phytotoxicity at day 7, Lettuce: 1 mM, 24-well plates, rating scale of 0 to 5; for IC50 / inhibition at 1000 µg/mL: lettuce; for IC50: 7 days; for inhibition at 1000 µg/mL: 1 mg/mL, day 7; for lettuce germination: fractions at 1 mg/mL
Procedure: DCM extract of flowers of A. visnaga (1.6 g) was divided in two 800 mg halves and each one was subjected to column chromatography using an Isolera One system (Biotage), equipped with UV detector (302 and 365 nm) and automatic fraction collector. Separation was performed by normal-phase chromatography column using a SNAP Cartridge KP-Sil (37×157 mm, 50 μm irregular silica, 100 g, Biotage) and a pre-packaged SNAP Samplet Cartridge KP-Sil (37×17 mm, Biotage). A full gradient of hexane:ethyl acetate was used for elution, from 100:0 to 0:100 over 3000 ml. Flow was 40 ml/min and 25 ml fractions were collected. Equal fractions were combined based on similarities on their TLC and chromatogram profiles providing nineteen fractions named I to XIX. All fractions were evaluated for their phytotoxicity on germination bioassay of lettuce (L. sativa) and creeping bentgrass (A. stolonifera).
A filter paper and 5 lettuce or 10 mg of creeping bentgrass seeds were placed in each well of a 24-well plate. Stock solutions (10×) of test compounds were prepared in acetone. 180 μl of distilled water were added to each well together with 20 μl of stock solution or acetone in solvent control. Final concentration of acetone was 10% v/v. Plates were sealed with Parafilm, and incubated at 26° C. in a growth chamber set at 173 μmol m^−2 s^−1 continuous photosynthetically active radiation. Phytotoxic activity was qualitatively evaluated by visually comparing germination in each well with solvent control at 7 days. A qualitative estimation of phytotoxicity was obtained by using a rating scale of 0 to 5, where 0 was no effect, and 5 was no germination of seeds. This procedure was also used for testing the phytotoxicity of pure compounds on ryegrass. On this experiment 12-well plates were used. 10 seeds were placed per well and final volume was 300 μl in each one. During dose-response bioassays used for IC50 determination, germination percentage and length of plants were measured at 7 days in order to determine the concentration required for 50% germination and growth inhibition (IC50). All experiments were done in triplicate.
Using method described in Example 1, compounds of Formula III and IV above were tested against lettuce and ryegrass.
The percentage of germination and length of plants were determined at 7 days. Data represents means of three replicates±SD. The IC50 values, for both germination and growth inhibition by compounds III and IV on lettuce and ryegrass, were obtained from estimated parameters in the regression curves.
Statistical Analysis. Data from dose-response experiments were analyzed by a log-logistic model^37-38 using the dose-response curve module^39 of R software version 2.2.1.^40 Concentrations required for 50% germination or growth inhibition relative to control (IC50 values) were obtained from estimated parameters in the regression curves. The standard error (SE) of each estimation is provided. Data from phytotoxicity bioassays in the laboratory and greenhouse, ROS and cell death quantifications were analyzed by ANOVA using the InfoStat statistical software version 2015,^41 and Scheffe's test was employed to compare the means at α=0.05.

[1] = Lactuca sativa, 168 h, read-out: IC50(μM) ± SE to inhibit germination
[2] = Lactuca sativa, 168 h, read-out: IC50(μM) ± SE to inhibit growth

Row | SMILES | reduction of electron transport rate (ETR) (cucumber cotyledon disks; 100 μM) [%] | reduction of electron transport rate (ETR) (cucumber cotyledon disks; 300 μM) [%] | increase in relative cell death with respect to the control (cucumber leaf disks) [%] | increase in relative cell death (cucumber leaf disks) [fold] | inhibition at 500 µM (lettuce) [%] | inhibition at 1000 µM (lettuce) [%] | inhibition at 1500 µM (lettuce) [%] | Phytotoxicity at day 7, Lettuce (lettuce (Lactuca sativa)) | IC50 (lettuce (Lactuca sativa); [1]) [µM] | IC50 (lettuce (Lactuca sativa); [2]) [µM] | inhibition at 1000 µg/mL (lettuce (Lactuca sativa); Lactuca sativa, 168 h) [%] | lettuce germination (lettuce (Lactuca sativa)) | IC50 (lettuce (Lactuca sativa); read-out: IC50(μM) ± SE to inhibit germination) [µM] | IC50 (lettuce (Lactuca sativa); read-out: IC50(μM) ± SE to inhibit growth) [µM]
1 | COc1c2occc2c(OC)c2c(=O)cc(C)oc12 [Formula III, 4,9-dimethoxy-7-methyl-5H-furo[3,2-g]chromen-5-one] | ~35 | ~50 | ~35 | 3.5 | 22 | 85 | 91 | 3 | 700 | 110 | 100 | completely inhibited | 701 ± 93 | –
2 | COc1c2ccoc2cc2oc(C)cc(=O)c12 [Formula IV, 4-methoxy-7-methyl-5H-furo[3,2-g]chromen-5-one] | ~35 | ~50 | ~35 | 3.5 | 22 | 85 | 91 | 3 | 740 | 170 | 100 | completely inhibited | – | 175 ± 16
